Data on 20 compounds can be found in US7470715B2, “Estrogen modulators” (Pfizer Inc., priority 2005, dated 2008).

pEC50: −log10 of the molar value.

Data set [1] addresses ligand binding domain of the estrogen receptor beta chain (ERβLBD) that contained a point mutation at amino acid residue 418 (pm418) (Homo sapiens, UniProt Q92731). In words: ER agonist cell assay (ERβ), Huh-7 co-transfection, luciferase. The settings on record: for pEC50: Huh-7 cells co-transfected with pG5luc and ERβLBD(pm418), overnight incubation, luciferase; for ERβ % of Max E2 Response: percent of the maximum estradiol fold change, Huh-7, pG5luc and ERβLBD(pm418). Type of data set: cell-based. As to the method:
(§1) The compounds ability to mimic the effects of estrogen on the estrogen receptor were determined in a whole cell assay as described immediately below.
(§2) Experimental Procedure for ER Agonist Cell Assay
(§3) • Cell line and plasmids: The human hepatoma cell line Huh-7 was used for co-transfections. Cells were maintained in culture medium and split when they reached 80-90% confluency. Three plasmids were routinely used in the assay. pG5luc contained the firefly luciferase gene and was obtained from Promega. […] Cell Culture Media and Reagents:
(§4) Culture medium: DMEM (phenol red free), 10% charcoal treated HyClone serum, 1% L-glutamine, and 1% penicillin/streptomycin
(§5) Transfection medium: DMEM (phenol red free) and 10% charcoal treated HyClone serum
(§6) Luciferase reagents: Dual-Glo Luciferase Kit (Promega cat #E2980) was used for determination of luciferase activity.
(§7) Transient transfections were preformed using the lipophilic reagent FuGENE 6 (Roche). Cells were split and seeded at 7.2×10^6/150 cm^2 flask in 20 mL of transfection medium. 5-6 hrs later cells were co-transfected with either pG5luc and ERαLBD or pG5luc and ERβLBD(pm418). Transfected cells grew overnight and were then used the next day.
(§8) Cells transfected 24 hrs earlier were harvested, counted, and seeded in wells containing compound at a density of 1×10^4 cells/well. […] Cells were incubated overnight at 37° C. and 5% CO2 in the presence of compound. The following day medium was aspirated from the wells and 100 ul of Dual-Glo™ Luciferase Reagent were added to each well. Plates were incubated at room temperature for 20 minutes and firefly luminescence was measured on a luminometer. Next, 50 ul of Dual-Gbo™ Stop & Glo® Reagent were added to each well and after 20 minutes at room temperature the Renilla luminescence was measured on a luminometer. Values from each well were normalized by dividing the firefly luminescence by the Renilla luminescence. Estradiol was used as the standard and run in each assay. The fold induction over background for each compound was compared to the maximum fold induction for estradiol in each assay. […] Those compounds that were not tested, or the data was unavailable are marked as NT.

Data set [2] concerns the target T1, ligand binding domain of the estrogen receptor alpha chain (ERαLBD) (Homo sapiens, UniProt P03372).
T1 construct: expressed in transfected cells; host or cells: Huh-7 human hepatoma cells, transient transfection with FuGENE 6
T1 sequence (P03372 311-547 limits assumed): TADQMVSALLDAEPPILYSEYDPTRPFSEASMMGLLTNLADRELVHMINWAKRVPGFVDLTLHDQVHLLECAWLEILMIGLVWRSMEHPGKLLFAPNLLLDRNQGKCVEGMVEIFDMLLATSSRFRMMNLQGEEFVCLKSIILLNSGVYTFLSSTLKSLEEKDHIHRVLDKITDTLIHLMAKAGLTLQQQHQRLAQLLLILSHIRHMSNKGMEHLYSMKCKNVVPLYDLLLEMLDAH
In words: ER agonist cell assay (ERα), Huh-7 co-transfection, luciferase. The settings on record: for pEC50: Huh-7 cells co-transfected with pG5luc and ERαLBD, overnight incubation, luciferase; for ERα % of Max E2 Response: percent of the maximum estradiol fold change, Huh-7, pG5luc and ERαLBD. It is filed as cell-based. As to the method: as §1, §2, §3, §4, §5, §6, §7, §8

In data set [3] the test system is hairless female SKH, 1-hr mice. Description: Animal model for reversal of wrinkles: skin thickness model, topical dosing, skin thickness and hyaluronic acid. Type of data set: in vivo, mouse. The settings on record: QD, three days. The source says:
Animal Model for Reversal of Wrinkles
Uzuka et al. describes an increase in mouse back skin water content, hyaluronic acid (HA) content, and hyaluronic acid synthetase activity following topical application or subcutaneous injection of estradiol (Biochimica et Biophysica Acta, 627, 199-206, 1980; Biochimica et Biophysica Acta 673, 387-393, 1981). […] Thus, this model may be used to as a preliminary screen to assess the potential for estrogen modulators to alleviate wrinkles in human skin.
The skin thickness model uses hairless female SKH, 1-hr mice. Mice aged to approximately 11 weeks are introduced into the laboratory environment and acclimated for at least 1 week prior to use in the study may be used. Each group typically consisted of 7 animals that may be run in parallel with vehicle and the positive control estradiol. Based on binding and/or cellular assay data, compounds are chosen for screening in this model. Those compounds include the products of Examples, 2, 9, 15, 46, 47, 48, 51, 52, 61, 135, and 137. Prior to topical application to mouse dorsal skin, a sufficient quantity of each compound is dissolved in a solvent generally consisting of ethanol and propylene glycol (70/30% v/v) (vehicle) to achieve the final concentration specified in Table C below. Animals are dosed topically QD or BID, for three days. Each dose consisted of 100 microliters of vehicle or drug applied uniformly to the entire dorsal surface (˜18 cm^2). All animals are sacrificed approximately 18-24 hours after the final dose. Skin thickness (ST) is measured using a caliper. HA is extracted from the skin and quantitated using commercially-available enzyme-linked immunosorbent assays (ELISAs)(HA).
Data are presented as percent of the estradiol response after subtracting out the ST for vehicle-treated mouse skin. The estradiol response is set to 100% and the vehicle resoibse becines 0%.

The term melting point denotes the temperature of the solid-liquid transition. Take `Cl.Oc1ccc(-c2noc(C3(CN4CCCNCC4)CC3)c2-c2ccccc2)cc1`: the melting point was in the range of 193 to 194 °C.

In general, pEC50 refers to the negative decadic logarithm of the EC50, by convention in mol/L. `CC(O)C1(c2onc(-c3ccc(O)cc3)c2-c2ccccc2)CC1` (racemic) [Example 45, (±)-4-{5-[1-(1-Hydroxy-ethyl)-cyclopropyl]-4-phenyl-isoxazol-3-yl}-phenol] registered a melting point of 196 to 197 °C. Further, in data set [1], the pEC50 is 7.33 and the “ERβ % of Max E2 Response” value amounted to 81.2%. Also, in data set [2], the pEC50 is 7.32 and the “ERα % of Max E2 Response” value came to 79.3%.

As to `CCCOCC1(c2onc(-c3ccc(O)cc3)c2-c2ccccc2)CC1` [Example 9, 4-[4-Phenyl-5-(1-propoxymethyl-cyclopropyl)-isoxazol-3-yl]-phenol], in data set [3] (3% topical), the “HA (hyaluronic acid), percent of the estradiol response” value (shortened to “HA (hyaluronic acid), percent”) stood at 58% and the “ST (skin thickness), percent of the estradiol response” value (“ST (skin thickness), percent” for short) worked out at 49%. In data set [1], the pEC50 was 7.38 and the “ERβ % of Max E2 Response” value stood at 2.63%. Further, in data set [2], the pEC50 is 6.75 and the “ERα % of Max E2 Response” value was 40.2%.

Regarding `Cl.Oc1ccc(-c2noc(C3(CN4CCSCC4)CC3)c2-c2ccccc2)cc1` [Example 32, 4-[4-Phenyl-5-(1-thiomorpholin-4-ylmethyl-cyclopropyl)-isoxazol-3-yl]-phenol hydrochloride salt], the melting point lay within 249 to 250 °C. Besides, in data set [1], the pEC50 was 7.71 and the “ERβ % of Max E2 Response” value was determined as 0.999%. Moreover, in data set [2], the pEC50 was 7.64 and the “ERα % of Max E2 Response” value is given as 38.5%.

`Cl.Oc1ccc(-c2noc(C3(CNc4ccc5c(c4)CCC5)CC3)c2-c2ccccc2)cc1` [Example 23, 4-{5-[1-(Indan-5-ylaminomethyl)-cyclopropyl]-4-phenyl-isoxazol-3-yl}-phenol hydrochloride salt] displayed a melting point of 204 to 205 °C. Further, in data set [1], the pEC50 is 5.41 and the “ERβ % of Max E2 Response” value came to 5.5%. In addition, in data set [2], the pEC50 was 6.25 and the “ERα % of Max E2 Response” value was found to be 21%.

In turn, `CC[C@H](O)C1(c2onc(-c3ccc(O)cc3)c2-c2ccccc2)CC1` [Example 100, Alt. F, (S)-(+)-4-{5-[1-(1-hydroxy-propyl)-cyclopropyl]-4-phenyl-isoxazol-3-yl}-phenol] showed a melting point of 165 to 166 °C.

`CCOc1ccccc1OCC1(c2onc(-c3ccc(O)cc3)c2-c2ccccc2)CC1` [Example 4, 4-{5-[1-(2-Ethoxy-phenoxymethyl)-cyclopropyl]-4-phenyl-isoxazol-3-yl}-phenol] showed a melting point of 148 to 149 °C. Also, in data set [1], the negative-log EC50 (pEC50) is less than 5.00 and the “ERβ % of Max E2 Response” value is listed as more than 0.727%. Also, in data set [2], the pEC50 was 6.85 and the “ERα % of Max E2 Response” value came to 14.7%.

For `Cl.Oc1ccc(-c2noc(C3(CNc4ccncc4)CC3)c2-c2ccccc2)cc1`, the melting point lay in the range of 316 to 317 °C.

With `CC(C)C(=O)OCC1(c2onc(-c3ccc(O)cc3)c2-c2ccccc2)CC1` [Example 52], in data set [3] (3% topical), the “HA (hyaluronic acid), percent” value is reported as 34% and the “ST (skin thickness), percent” value amounted to 21%. In data set [1], the pEC50 is 6.93 and the “ERβ % of Max E2 Response” value was 121%. In data set [2], the negative logarithm of the EC50 (pEC50) is 6.86 and the “ERα % of Max E2 Response” value is on record as 66%.

In turn, `CC(C)(O)C1(c2onc(-c3ccc(O)cc3)c2-c2ccccc2)CC1` [Example 49, 4-{5-[1-(1-Hydroxy-1-methyl-ethyl)-cyclopropyl]-4-phenyl-isoxazol-3-yl}-phenol] yielded a melting point of 212 to 213 °C. For the same compound, in data set [1], the negative-log EC50 (pEC50) is 7.63 and the “ERβ % of Max E2 Response” value turned out to be 36.7%. Also, in data set [2], the negative-log EC50 (pEC50) was 6.80 and the “ERα % of Max E2 Response” value came out at 94.6%.

On to “1-[3-(4-Hydroxy-phenyl)-4-phenyl-isoxazol-5-yl]-cyclopropanecarboxylic acid isopropyl ester [Example 61]”, for which, in data set [3] (3% topical), the “HA (hyaluronic acid), percent” value is 38% and the “ST (skin thickness), percent” value is given as 32%. Besides, in data set [1], the pEC50 is less than 5.00 and the “ERβ % of Max E2 Response” value is recorded as more than 1.83%. Besides, in data set [2], the pEC50 is 7.12 and the “ERα % of Max E2 Response” value stood at 21.1%.

`O=C(OCC1(c2onc(-c3ccc(O)cc3)c2-c2ccccc2)CC1)C1CC1` [Example 51]: in data set [3] (1% topical), the “HA (hyaluronic acid), percent” value was 35% and the “ST (skin thickness), percent” value is recorded as 19%. For the same compound, in data set [1], the pEC50 was 7.07 and the “ERβ % of Max E2 Response” value came out at 75.2%. For the same compound, in data set [2], the pEC50 was 6.82 and the “ERα % of Max E2 Response” value is 63.8%.

Turning to `CC(C)COC(=O)C1(c2onc(-c3ccc(O)cc3)c2-c2ccccc2)CC1` [Example 60, 1-[3-(4-Hydroxy-phenyl)-4-phenyl-isoxazol-5-yl]-cyclopropanecarboxylic acid isobutyl ester], the melting point fell in the range of 109 to 110 °C. For the same compound, in data set [1], the pEC50 is less than 5.00 and the “ERβ % of Max E2 Response” value is recorded as more than 3.71%. Also, in data set [2], the pEC50 was 7.89 and the “ERα % of Max E2 Response” value was 23.3%.

Compound `NCC1(c2onc(-c3ccc(O)cc3)c2-c2ccccc2)CC1` [Example 105, 4-{5-[1-(Aminomethyl)cyclopropyl]-4-phenylisoxazol-3-yl}phenol] registered a melting point of 220 to 225 °C.

Compound `Oc1ccc(-c2noc(C3(CNCC4CCCO4)CC3)c2-c2ccccc2)cc1` (racemic) [Example 30, (±)-4-[4-Phenyl-5-(1-{[(tetrahydro-furan-2-ylmethyl)-amino]-methyl}-cyclopropyl)-isoxazol-3-yl]-phenol] displayed a melting point of 276 to 277 °C.

As to `Oc1ccc(-c2noc(C3(C[n+]4ccccc4)CC3)c2-c2ccccc2)cc1.[Cl-]`, the melting point lay in the range of 244 to 245 °C.

Consider `CC1(c2onc(-c3ccc(O)cc3)c2-c2ccccc2)CC1` [Example 36, 4-[5-(1-methyl-cyclopropyl)-4-phenyl-isoxazol-3-yl]phenol], for which the melting point lay in the range of 212 to 214 °C.

Take `C[C@H](O)C1(c2onc(-c3ccc(O)cc3)c2-c2ccccc2)CC1` [Example 100, Alt. D, (S)-(+)-4-{5-[1-(1-Hydroxy-ethyl)-cyclopropyl]-4-phenyl-isoxazol-3-yl}-phenol]: the melting point was in the range of 220 to 221 °C.

For the compound `CN(C)CC1(c2onc(-c3ccc(O)cc3)c2-c2ccccc2)CC1.Cl`, the melting point worked out at 234 °C.

`CCCC(O)C1(c2onc(-c3ccc(O)cc3)c2-c2ccccc2)CC1` (racemic) [Example 15, (±)-4-{5-[1-(1-Hydroxy-butyl)-cyclopropyl]-4-phenyl-isoxazol-3-yl}-phenol]: in data set [3] (3% topical), the “HA (hyaluronic acid), percent” value was found to be 47% and the “ST (skin thickness), percent” value worked out at 41%. Besides, in data set [1], the pEC50 is 6.82 and the “ERβ % of Max E2 Response” value came out at 15.6%. Moreover, in data set [2], the pEC50 was 7.61 and the “ERα % of Max E2 Response” value came to 43.8%.
